Test results as given in patent US20150315241A1, “Antibiotic Peptides” (priority 2007, published 2015).
Converted amounts (≈) assume the structure as drawn. Like-named read-outs stand apart in the source and are kept apart here. Where a SMILES comes first, the peptide text is derived from it. Bridges are numbered along the chain shown (N, C = ends). Roman numbers before positions name the chains, in order. [ ]: non-standard residue; d: D form. Hyp = O=C(O)[C@@H]1C[C@@H](O)CN1; Orn = NCCC[C@H](N)C(=O)O; Dab = NCC[C@H](N)C(=O)O

Assays:
in vitro = in vitro ADME, mouse
Procedure: Serum stability studies were carried out in duplicate as described by Hoffmann et al.. Briefly, 28 μL of an aqueous peptide or peptidomimetics solution (0.5 mg/mL) was added to 0.2 mL freshly pooled 25% mouse serum (Sigma-Aldrich GmbH, Taufkirchen, Germany) in water. The mixtures were incubated at 37° C. under gentle stirring. The proteins were precipitated with 40 μL of 15% aqueous TCA after incubation times of 0, 0.5, 1, 2, 4 and 6 h at 0° C. for 20 min before centrifuged (13500×G) at 4° C. for 5 min. The supernatants of all samples (240 μL) were neutralized with 1 mol/L aqueous NaOH and immediately stored at −20° C. The supernatants were analyzed by RP-HPLC using a linear acetonitrile gradient as described above with 0.1% TFA as ion pair reagent. Collected fractions of the main peaks were further analyzed by tandem mass spectrometry (MALDI-TOF/TOF-MS, 4700 Proteomics Analyzer, Applied Biosystems GmbH, Weiterstadt, Germany) in positive ion reflector mode using α-cyanohydroxycinnamic acid (50% CH3CN in 0.1% aqueous TFA) as matrix to identify the degradation products of the peptides and peptidomimetics, i.e., metabolites, at the different time points. Serum control samples consisted of 200 μL of pooled 25% mouse serum in water, which were also precipitated with 40 μL 15% aqueous TCA, as described before. Peptide reference samples consisted of 28 μL of the peptide stock solution diluted in 0.2 mL water and 40 μL of 15% aqueous trichloroacetic acid (TCA).

E. coli 45849 = experiment: Growth inhibition assay (MIC); format: cell-based, Escherichia coli
Summary of the method: (§1)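 MIC by growth inhibition: overnight NB culture → 5×10^6 CFU/mL in 1% TSB; peptide 2-fold series, final 125 μg/mL to 60 ng/mL; 37° C., 20 hrs; OD595. n=3.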

S. typhi S5 = format: cell-based, Salmonella typhi; conditions: S5, 20 h
Summary of the method: as §1

E. coli D31 = format: cell-based, Escherichia coli; conditions: D31, 20 h
Summary of the method: as §1

K. Pneumonia 123132 = experiment: Growth inhibition assay (MIC); format: cell-based, Klebsiella pneumoniae
Summary of the method: as §1

[1] = test system: K. Pneumonia K6, ATCC 700603; experiment: Growth inhibition assay (MIC); format: cell-based, Klebsiella pneumoniae; conditions: multidrug resistant strain; 1% TSB, 37° C., 20 hrs
Summary of the method: as §1

[2] = test system: S. enterica subsp. Enterica serovar. typhi G10215 ATCC 700408; format: cell-based, Salmonella enterica; conditions: ATCC 700408, 20 h
Summary of the method: as §1

[3] = test system: R. radiobatter ATCC 15955; experiment: Growth inhibition assay (MIC); format: cell-based, Rhizobium radiobacter
Summary of the method: as §1

E. coli BL 21 AI = experiment: Growth inhibition assay (MIC); format: cell-based, Escherichia coli; conditions: 1% TSB, 37° C., 20 hrs
Summary of the method: (§2)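 Two-fold serial dilution in 1% TSB, final 125 μg/mL to 60 ng/mL; inoculum 5×10^6 CFU/mL (before 1:1 mixing with peptide). Incubated 20 hrs at 37° C., growth read as absorbance at 595 nm, in triplicate with sterile water as negative control.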

M. luteus ATCC 10240 = format: cell-based, Micrococcus luteus
Summary of the method: as §2

E. coli 10233 = format: cell-based, Escherichia coli
Summary of the method: as §2

E. coli 1103 = format: cell-based, Escherichia coli
Summary of the method: as §2

K. pneumonia 681 = format: cell-based, Klebsiella pneumoniae
Summary of the method: as §2

B. subtilis 347 = format: cell-based, Bactillus subtillis
Summary of the method: as §2

[4] = 25% aqueous mouse serum, 37° C., read-out: Half-life time
[5] = multidrug resistant strain, 1% TSB, 37° C., 20 hrs

Row | Structure (SMILES) | half-life at 0.061 mg/mL (in vitro; [4]) [min] | MIC E. coli 45849 (E. coli 45849; 45849, 20 h) [µg/mL] | MIC S. typhi S5 (S. typhi S5) [µg/mL] | MIC E. coli D31 (E. coli D31) [µg/mL] | MIC K. Pneumonia 123132 (K. Pneumonia 123132; 20 h) [µg/mL] | MIC K. Pneumonia K6, ATCC 700603 [1] [µg/mL] | MIC S. enterica subsp. Enterica serovar. typhi G10215 ATCC 700408 [2] [µg/mL] | MIC R. radiobatter ATCC 15955 ([3]; ATCC 15955, 20 h) [µg/mL] | MIC E. coli BL 21 AI (E. coli BL 21 AI) [µg/mL] | MIC M. luteus ATCC 10240 (M. luteus ATCC 10240; 1% TSB, 37° C., 20 hrs) [µg/mL] | MIC E. coli 10233 (E. coli 10233; 1% TSB, 37° C., 20 hrs) [µg/mL] | MIC E. coli 1103 (E. coli 1103; 1% TSB, 37° C., 20 hrs) [µg/mL] | MIC K. pneumonia 681 (K. pneumonia 681; 1% TSB, 37° C., 20 hrs) [µg/mL] | MIC B. subtilis 347 (B. subtilis 347; 1% TSB, 37° C., 20 hrs) [µg/mL] | MIC E. coli 45849 (E. coli 45849; [5]) [µg/mL] | MIC K. Pneumonia 123132 (K. Pneumonia 123132; [5]) [µg/mL] | MIC R. radiobatter ATCC 15955 [3, 5] [µg/mL] | MIC E. coli 10233 (E. coli 10233; 10233, 20 h) [µg/mL] | MIC K. pneumonia 681 (K. pneumonia 681; 20 h) [µg/mL] | MIC B. subtilis 347 (B. subtilis 347; 347, 20 h) [µg/mL] | further results
1 | CC[C@H](C)[C@H](NC(=O)[C@H](Cc1ccc(O)cc1)NC(=O)[C@@H](NC(=O)[C@@H]1CCCN1C(=O)[C@H](CCCNC(=N)N)NC(=O)[C@H](CC(N)=O)NC(=O)[C@H](CC(N)=O)NC(=O)[C@@H](N)CCCN)C(C)C)C(=O)N1CCC[C@H]1C(=O)N[C@@H](CCCN)C(=O)N1CCC[C@H]1C(=O)N[C@@H](CCCNC(=N)N)C(=O)N1CCC[C@H]1C(=O)N1CCC[C@H]1C(=O)N[C@@H](Cc1c[nH]cn1)C(=O)N1CCC[C@H]1C(=O)N[C@@H](CCCNC(=N)N)C(=O)N[C@@H](CC(C)C)C(N)=O [compound 12] (H-[Orn]NNRPVYIP[Orn]PRPPHPRL-NH2) | 15 | 1 (≈ 0.465 µM) | <0.5 | 4 (≈ 1.86 µM) | 4 (≈ 1.86 µM) | 4 (≈ 1.86 µM) | <0.25 | 0.65 (≈ 0.302 µM) | 0.98 (≈ 0.456 µM) | 1.95 (≈ 0.907 µM) | 0.98 to 1.95 | 3.91 (≈ 1.82 µM) | 7.81 (≈ 3.63 µM) | 62.5 (≈ 29.1 µM) |  |  |  |  |  |  | 
2 | CC[C@H](C)[C@H](NC(=O)[C@H](Cc1ccc(O)cc1)NC(=O)[C@@H](NC(=O)[C@@H]1CCCN1C(=O)[C@H](CCCNC(=N)N)NC(=O)[C@H](CC(N)=O)NC(=O)[C@H](CC(N)=O)NC(=O)[C@H](CCCN)NC(C)=O)C(C)C)C(=O)N1CCC[C@H]1C(=O)N[C@@H](CCCN)C(=O)N1CCC[C@H]1C(=O)N[C@@H](CCCNC(=N)N)C(=O)N1CCC[C@H]1C(=O)N1CCC[C@H]1C(=O)N[C@@H](Cc1c[nH]cn1)C(=O)N1CCC[C@H]1C(=O)N[C@@H](CCCNC(=N)N)C(=O)N[C@@H](CC(C)C)C(N)=O [compound 13] (Ac-[Orn]NNRPVYIP[Orn]PRPPHPRL-NH2) | 15 | 2 (≈ 0.912 µM) | <0.5 | 4 (≈ 1.82 µM) | 8 (≈ 3.65 µM) | 8 (≈ 3.65 µM) | <0.25 | <0.16 | 1.95 (≈ 0.889 µM) | 1.95 (≈ 0.889 µM) | 1.95 (≈ 0.889 µM) | 3.81 (≈ 1.74 µM) | 3.91 (≈ 1.78 µM) | 125 (≈ 57 µM) |  |  |  |  |  |  | degradation pathway in serum (N-/C-terminal) (in vitro; 25% mouse serum, metabolites by MALDI-MS): not degraded N-terminally, but only from the C-terminal end
3 | CC[C@H](C)[C@H](NC(=O)[C@H](Cc1ccc(O)cc1)NC(=O)[C@@H](NC(=O)[C@@H]1CCCN1C(=O)[C@H](CCCNC(=N)N)NC(=O)[C@H](CC(N)=O)NC(=O)[C@H](CC(N)=O)NC(=O)[C@H](CCCN)NC(C)=O)C(C)C)C(=O)N1CCC[C@H]1C(=O)N[C@@H](CCCNC(=N)N)C(=O)N1C[C@H](O)C[C@H]1C(=O)N[C@@H](CCCNC(=N)N)C(=O)N1CCC[C@H]1C(=O)N1CCC[C@H]1C(=O)N[C@@H](Cc1c[nH]cn1)C(=O)N1CCC[C@H]1C(=O)N[C@@H](CCCNC(=N)N)C(=O)N[C@@H](CC(C)C)C(N)=O [compound 40] (Ac-[Orn]NNRPVYIPR[Hyp]RPPHPRL-NH2) |  |  | <0.5 | 8 (≈ 3.55 µM) |  | 16 (≈ 7.11 µM) | 4 (≈ 1.78 µM) |  |  |  |  |  |  |  | 1 (≈ 0.444 µM) | 4 (≈ 1.78 µM) | 0.33 (≈ 0.147 µM) | 1.95 (≈ 0.866 µM) | 3.91 (≈ 1.74 µM) | 125 (≈ 55.5 µM) | MIC E. coli 1103 (E. coli 1103; 1103, 20 h): 3.91 µg/mL (≈ 1.74 µM)
4 | CC[C@H](C)[C@H](NC(=O)[C@H](Cc1ccc(O)cc1)NC(=O)[C@@H](NC(=O)[C@@H]1CCCN1C(=O)[C@H](CCCNC(=N)N)NC(=O)[C@H](CC(N)=O)NC(=O)[C@H](CC(N)=O)NC(=O)[C@@H](N)CCCN)C(C)C)C(=O)N1CCC[C@H]1C(=O)N[C@@H](CCCNC(=N)N)C(=O)N1C[C@H](O)C[C@H]1C(=O)N[C@@H](CCCNC(=N)N)C(=O)N1CCC[C@H]1C(=O)N1CCC[C@H]1C(=O)N[C@@H](Cc1c[nH]cn1)C(=O)N1CCC[C@H]1C(=O)N[C@@H](CCCNC(=N)N)C(=O)N[C@@H](CC(C)C)C(N)=O [compound 45] (H-[Orn]NNRPVYIPR[Hyp]RPPHPRL-NH2) |  |  | <0.5 | 8 (≈ 3.62 µM) |  | 4 (≈ 1.81 µM) | 2 (≈ 0.906 µM) |  |  |  |  |  |  |  | 1 (≈ 0.453 µM) | 4 (≈ 1.81 µM) | 0.65 (≈ 0.294 µM) | 1.95 to 3.91 | 7.81 (≈ 3.54 µM) | 62.5 (≈ 28.3 µM) | MIC E. coli 1103 (E. coli 1103; 1103, 20 h): 7.81 µg/mL (≈ 3.54 µM)
5 | CC[C@H](C)[C@H](NC(=O)[C@H](Cc1ccc(O)cc1)NC(=O)[C@@H](NC(=O)[C@@H]1CCCN1C(=O)[C@H](CCCNC(=N)N)NC(=O)[C@H](CC(N)=O)NC(=O)[C@H](CC(N)=O)NC(=O)[C@H](CCCN)NC(C)=O)C(C)C)C(=O)N1CCC[C@H]1C(=O)N[C@@H](CCCNC(=N)N)C(=O)N1CCC[C@H]1C(=O)N[C@@H](CCCNC(=N)N)C(=O)N1CCC[C@H]1C(=O)N1CCC[C@H]1C(=O)N[C@@H](Cc1c[nH]cn1)C(=O)N1CCC[C@H]1C(=O)N[C@@H](CCCNC(=N)N)C(=O)N[C@@H](CC(C)C)C(=O)NCC[C@H](NC(=O)[C@H](CC(C)C)NC(=O)[C@H](CCCNC(=N)N)NC(=O)[C@@H]1CCCN1C(=O)[C@H](Cc1c[nH]cn1)NC(=O)[C@@H]1CCCN1C(=O)[C@@H]1CCCN1C(=O)[C@H](CCCNC(=N)N)NC(=O)[C@@H]1CCCN1C(=O)[C@H](CCCNC(=N)N)NC(=O)[C@@H]1CCCN1C(=O)[C@@H](NC(=O)[C@H](Cc1ccc(O)cc1)NC(=O)[C@@H](NC(=O)[C@@H]1CCCN1C(=O)[C@H](CCCNC(=N)N)NC(=O)[C@H](CC(N)=O)NC(=O)[C@H](CC(N)=O)NC(=O)[C@H](CCCN)NC(C)=O)C(C)C)[C@@H](C)CC)C(=O)O [compound 83] (I: Ac-[Orn]NNRPVYIPRPRPPHPRL[Dab]-OH / II: Ac-[Orn]NNRPVYIPRPRPPHPRL; amide I:19-II:C) |  |  | 4 (≈ 0.878 µM) | 2 (≈ 0.439 µM) |  | 8 (≈ 1.76 µM) | 4 (≈ 0.878 µM) |  | 1.95 (≈ 0.428 µM) |  |  |  |  |  | 8 (≈ 1.76 µM) | 8 (≈ 1.76 µM) |  | 31.25 (≈ 6.86 µM) | 125 (≈ 27.5 µM) | 15.6 (≈ 3.43 µM) | half-life (in vitro; [4]): 15 min; MIC M. luteus ATCC 10240 (M. luteus ATCC 10240; ATCC 10240, 20 h): 1.95 µg/mL (≈ 0.428 µM)
